Data published in ChEMBL document CHEMBL1201862, “PubChem BioAssay data set” (2004).
Activity calls are given as the source filed them.

Assays:
[1] = biological target: NAD-dependent protein deacylase sirtuin-5, mitochondrial (Homo sapiens, UniProt Q9NXA8); assay: SIRT5 deacylase inhibitors, dose response, biochemical, fluorescence imaging, cherry-pick, set 6 (AID 720597)
Ion channel NompC = Ion channel NompC (Danio rerio, UniProt Q7T1G6); assay: Fluorescence counterscreen assay for TRPML3 agonists: dose response cell-based high-throughput screening assay to identify agonists of the transient receptor potential channel N1 (TRPN1). [Related pubchem assays: 1526, 1424, 1448 ]; assay type: functional
Mucolipin-3 = Mucolipin-3 (Homo sapiens, UniProt Q8TDD5); assay: Dose response cell-based high-throughput screening assay for agonists of the transient receptor potential channel ML3 (TRPML3). [Related pubchem assays: 1526, 1424, 1448 ]; assay type: functional
[2] = biological target: Ubiquitin carboxyl-terminal hydrolase BAP1 (Homo sapiens, UniProt Q92560); assay: BAP1 deubiquitinase inhibitors, dose response, biochemical (AID 714); assay type: functional
NADPH oxidase 1 = NADPH oxidase 1 (Homo sapiens, UniProt Q9Y5S8); assay type: functional, cell-based;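 also: Cell-based assay with luminescence read-out, IC50 derived from inhibitor dose-response curves; intracellular ROS from endogenous NOX1 in intact HT29 colon cancer cells; potency of inhibitors that lower the ROS luminescence signal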
[3] = A Cell-Based Confirmatory Screen for Compounds that Inhibit VEEV TC-83 (4).; assay type: functional
[4] = A Cell-Based Confirmatory Screen for Compounds that Inhibit VEEV, TC-83 (5).; assay type: functional
[5] = A Cell-Based Confirmatory Screen for Compounds that Inhibit VEEV, TC-83 (8).; assay type: functional
Bcl-2-like protein 1 = Bcl-2-like protein 1 (Homo sapiens, UniProt Q07817); assay: BCL-XL inhibitors, dose response, selectivity assay for MCL1 inhibitor project, biochemical, fluorescence polarization, 1536-well (AID 2218)
Nonstructural protein 1 = Nonstructural protein 1 (Influenza A virus, UniProt Q194T2); assay type: functional, Influenza A virus (A/California/07/2009(H1N1))
[6] = biological target: Induced myeloid leukemia cell differentiation protein Mcl-1 (Homo sapiens, UniProt Q07820); assay: MCL1-BIM BH3 interaction inhibitors, dose response, biochemical, fluorescence polarization, BIM-BH3 peptide, 1536-well (AID 2217)
Cytochrome P450 2D6 = Cytochrome P450 2D6 (Homo sapiens, UniProt P10635);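 also: CYP2D6 member of a cytochrome P450 panel assay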
[7] = biological target: Mothers against decapentaplegic homolog 3 (Homo sapiens, UniProt P84022); assay: SMAD3 transcription factor inhibitors, dose response (AID 715); assay type: functional
Cytochrome P450 2C19 = Cytochrome P450 2C19 (Homo sapiens, UniProt P33261); assay: Cytochrome panel assay with activity outcomes. Panel member name: p450-cyp2c19 Compounds with AC50 equal or less than 10 uM are considered active; assay type: functional
Estrogen receptor = biological target: T1, Estrogen receptor (Homo sapiens, UniProt P03372); assay: potentiators of ERα–SRC-1 coactivator binding, dose response, biochemical, TR-FRET, ERα LBD (AID 737)
T1 sequence (P03372 whole entry): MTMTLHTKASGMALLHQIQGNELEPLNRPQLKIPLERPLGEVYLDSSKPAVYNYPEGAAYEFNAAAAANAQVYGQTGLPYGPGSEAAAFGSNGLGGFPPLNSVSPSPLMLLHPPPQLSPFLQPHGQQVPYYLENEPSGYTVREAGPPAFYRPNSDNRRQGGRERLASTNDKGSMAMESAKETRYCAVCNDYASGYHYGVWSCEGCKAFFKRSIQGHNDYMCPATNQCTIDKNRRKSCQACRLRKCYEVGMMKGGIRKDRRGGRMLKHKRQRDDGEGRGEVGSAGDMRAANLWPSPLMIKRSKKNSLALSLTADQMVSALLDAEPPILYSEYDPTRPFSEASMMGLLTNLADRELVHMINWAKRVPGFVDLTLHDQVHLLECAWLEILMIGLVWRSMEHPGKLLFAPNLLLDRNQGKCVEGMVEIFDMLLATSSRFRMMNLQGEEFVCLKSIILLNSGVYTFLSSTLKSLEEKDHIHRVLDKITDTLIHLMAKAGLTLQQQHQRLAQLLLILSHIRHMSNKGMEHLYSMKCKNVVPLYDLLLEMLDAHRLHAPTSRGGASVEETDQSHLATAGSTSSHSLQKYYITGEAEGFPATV

[8] = growth suppression of beta-catenin-knockout colon cells, dose response, cell-based, HCT116, human colon tumor (AID 1045); assay type: functional;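 also: HCT116 colon tumor cells with beta catenin knocked out; cells exposed to compound for 60 hours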
[9] = growth suppression of PTEN-null colon cells, dose response, cell-based, HCT116 PTEN knockout (AID 1047); assay type: functional;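 also: HCT116 colon tumor cells with PTEN knocked out; cells exposed to compound for 60 hours before readout; potency for loss of cell viability measured by luminescence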
[10] = inhibitors of non-replicating M. tuberculosis, dose response, luciferase, dry powder (AID 651619); assay type: functional; conditions: Mycobacterium tuberculosis
[11] = growth inhibition of replicating M. tuberculosis, dose response, counter-screen, dry powder, IC90 (AID 651617); assay type: functional; conditions: Mycobacterium tuberculosis
[12] = inhibitors of non-replicating M. tuberculosis, dose response, luciferase, dry powder (AID 651620); assay type: functional; conditions: Mycobacterium tuberculosis
[13] = cytotoxicity in HepG2 cells, dose response, cytotoxicity control, cell-based, plate reader, dry powder (AID 651947); assay type: functional
[14] = microbe, parasite or virus in culture; assay type: functional; conditions: Mycobacterium tuberculosis
Vero = assay: host cell cytotoxicity of antiviral hits, dose response, cytotoxicity control for West Nile virus antiviral project, secondary assay (AID 1650); assay type: functional; conditions: Chlorocebus sabaeus
[15] = A High Throughput Confirmatory Assay used to Identify Novel Compounds that Inhibit Mycobacterium Tuberculosis in the absence of Glycerol.; assay type: functional
Cytochrome P450 3A4 = Cytochrome P450 3A4 (Homo sapiens, UniProt P08684);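 also: CYP3A4 tested as one member of a cytochrome P450 panel screen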
Chain of Cytochrome P450 3A4 (P08684 whole entry): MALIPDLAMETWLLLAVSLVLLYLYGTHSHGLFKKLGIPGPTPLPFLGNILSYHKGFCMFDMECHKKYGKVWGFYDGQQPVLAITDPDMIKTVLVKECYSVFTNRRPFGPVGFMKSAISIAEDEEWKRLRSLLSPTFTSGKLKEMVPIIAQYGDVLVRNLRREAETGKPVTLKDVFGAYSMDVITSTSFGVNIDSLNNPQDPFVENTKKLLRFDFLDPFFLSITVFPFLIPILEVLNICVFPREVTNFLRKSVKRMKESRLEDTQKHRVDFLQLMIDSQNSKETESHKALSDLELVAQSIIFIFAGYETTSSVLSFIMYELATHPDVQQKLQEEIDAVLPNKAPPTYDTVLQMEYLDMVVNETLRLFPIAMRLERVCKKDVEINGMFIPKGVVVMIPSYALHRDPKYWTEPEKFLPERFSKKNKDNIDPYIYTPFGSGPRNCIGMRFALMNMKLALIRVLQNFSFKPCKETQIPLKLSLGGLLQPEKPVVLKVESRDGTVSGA

Chain of Cytochrome P450 2D6 (P10635 whole entry): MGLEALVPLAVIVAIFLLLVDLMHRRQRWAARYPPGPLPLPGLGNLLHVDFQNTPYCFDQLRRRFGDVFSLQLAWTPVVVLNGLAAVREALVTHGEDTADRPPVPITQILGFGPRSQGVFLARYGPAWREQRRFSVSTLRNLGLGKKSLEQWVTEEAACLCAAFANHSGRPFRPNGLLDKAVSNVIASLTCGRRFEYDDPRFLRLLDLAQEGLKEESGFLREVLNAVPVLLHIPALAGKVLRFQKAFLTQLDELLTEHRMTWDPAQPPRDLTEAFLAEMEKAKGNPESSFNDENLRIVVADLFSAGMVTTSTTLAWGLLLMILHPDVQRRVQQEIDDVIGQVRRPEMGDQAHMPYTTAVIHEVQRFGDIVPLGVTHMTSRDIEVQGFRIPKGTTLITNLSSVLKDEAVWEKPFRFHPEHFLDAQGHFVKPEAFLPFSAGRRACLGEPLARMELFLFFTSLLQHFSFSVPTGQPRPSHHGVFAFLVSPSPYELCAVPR
Chain of Ubiquitin carboxyl-terminal hydrolase BAP1 (Q92560 whole entry): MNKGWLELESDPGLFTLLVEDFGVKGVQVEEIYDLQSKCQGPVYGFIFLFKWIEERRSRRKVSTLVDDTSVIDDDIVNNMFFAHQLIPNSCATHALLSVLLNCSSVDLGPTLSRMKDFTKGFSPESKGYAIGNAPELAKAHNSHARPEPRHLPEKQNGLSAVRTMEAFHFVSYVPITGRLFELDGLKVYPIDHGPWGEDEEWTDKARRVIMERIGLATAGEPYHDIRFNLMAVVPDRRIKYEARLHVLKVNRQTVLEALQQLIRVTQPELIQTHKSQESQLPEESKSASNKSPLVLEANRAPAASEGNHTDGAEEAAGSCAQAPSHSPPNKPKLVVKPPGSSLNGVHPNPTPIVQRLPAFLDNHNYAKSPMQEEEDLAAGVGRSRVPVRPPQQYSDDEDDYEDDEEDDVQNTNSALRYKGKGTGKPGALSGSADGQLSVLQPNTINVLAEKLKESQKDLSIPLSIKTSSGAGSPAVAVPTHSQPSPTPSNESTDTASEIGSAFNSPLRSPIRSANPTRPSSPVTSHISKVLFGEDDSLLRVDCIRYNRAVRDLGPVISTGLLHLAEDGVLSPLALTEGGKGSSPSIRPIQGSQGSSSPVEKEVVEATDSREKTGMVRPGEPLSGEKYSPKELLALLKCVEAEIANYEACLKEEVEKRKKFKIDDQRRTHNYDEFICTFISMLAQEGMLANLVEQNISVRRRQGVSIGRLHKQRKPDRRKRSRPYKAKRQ
Chain of Mucolipin-3 (Q8TDD5 whole entry): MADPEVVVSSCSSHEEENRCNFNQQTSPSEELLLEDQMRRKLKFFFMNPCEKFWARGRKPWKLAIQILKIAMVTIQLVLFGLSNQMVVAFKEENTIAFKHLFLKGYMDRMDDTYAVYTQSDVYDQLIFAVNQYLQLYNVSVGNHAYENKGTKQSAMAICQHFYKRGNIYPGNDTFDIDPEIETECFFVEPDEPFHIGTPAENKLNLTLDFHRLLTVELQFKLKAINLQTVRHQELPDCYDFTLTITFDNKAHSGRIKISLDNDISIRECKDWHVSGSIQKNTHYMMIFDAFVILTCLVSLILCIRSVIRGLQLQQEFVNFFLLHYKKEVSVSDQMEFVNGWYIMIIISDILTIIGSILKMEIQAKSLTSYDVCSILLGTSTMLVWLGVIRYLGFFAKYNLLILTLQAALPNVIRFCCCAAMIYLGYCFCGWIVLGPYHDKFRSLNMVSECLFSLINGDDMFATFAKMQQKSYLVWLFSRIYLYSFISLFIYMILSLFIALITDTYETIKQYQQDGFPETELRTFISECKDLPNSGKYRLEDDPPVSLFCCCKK
Chain of NADPH oxidase 1 (Q9Y5S8 whole entry): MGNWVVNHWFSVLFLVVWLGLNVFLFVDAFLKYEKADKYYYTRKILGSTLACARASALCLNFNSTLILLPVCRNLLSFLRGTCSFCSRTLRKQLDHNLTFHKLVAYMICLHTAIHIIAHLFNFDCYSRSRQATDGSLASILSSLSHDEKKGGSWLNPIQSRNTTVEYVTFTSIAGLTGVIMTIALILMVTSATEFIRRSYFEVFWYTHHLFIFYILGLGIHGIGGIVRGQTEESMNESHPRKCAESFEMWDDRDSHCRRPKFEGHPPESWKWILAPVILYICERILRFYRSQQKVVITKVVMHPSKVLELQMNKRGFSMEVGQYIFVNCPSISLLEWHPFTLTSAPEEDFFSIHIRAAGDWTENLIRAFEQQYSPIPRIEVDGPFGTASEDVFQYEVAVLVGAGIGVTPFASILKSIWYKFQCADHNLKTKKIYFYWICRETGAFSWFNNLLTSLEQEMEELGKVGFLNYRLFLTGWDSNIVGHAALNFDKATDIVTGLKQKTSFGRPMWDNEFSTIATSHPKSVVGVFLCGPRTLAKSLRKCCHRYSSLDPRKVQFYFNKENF
Chain of Mothers against decapentaplegic homolog 3 (P84022 whole entry): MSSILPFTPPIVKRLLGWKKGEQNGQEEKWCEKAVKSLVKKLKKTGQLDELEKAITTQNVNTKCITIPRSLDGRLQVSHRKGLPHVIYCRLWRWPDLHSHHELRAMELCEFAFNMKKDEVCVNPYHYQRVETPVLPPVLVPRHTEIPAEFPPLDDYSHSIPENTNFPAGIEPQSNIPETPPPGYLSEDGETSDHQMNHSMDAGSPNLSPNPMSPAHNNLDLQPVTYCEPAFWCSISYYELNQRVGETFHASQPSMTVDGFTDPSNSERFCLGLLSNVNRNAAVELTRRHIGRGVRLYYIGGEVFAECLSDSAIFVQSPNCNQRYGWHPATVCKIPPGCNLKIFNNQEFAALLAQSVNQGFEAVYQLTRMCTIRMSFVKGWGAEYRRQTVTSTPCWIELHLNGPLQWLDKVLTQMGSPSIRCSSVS
Chain of Bcl-2-like protein 1 (Q07817 whole entry): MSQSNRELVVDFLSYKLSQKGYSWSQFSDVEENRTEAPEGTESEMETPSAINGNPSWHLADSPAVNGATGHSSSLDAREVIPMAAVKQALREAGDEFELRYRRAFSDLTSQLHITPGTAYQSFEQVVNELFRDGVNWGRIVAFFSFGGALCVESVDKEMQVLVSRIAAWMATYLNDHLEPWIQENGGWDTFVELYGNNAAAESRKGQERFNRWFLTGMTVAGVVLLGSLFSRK
Chain of Nonstructural protein 1 (Q194T2 whole entry): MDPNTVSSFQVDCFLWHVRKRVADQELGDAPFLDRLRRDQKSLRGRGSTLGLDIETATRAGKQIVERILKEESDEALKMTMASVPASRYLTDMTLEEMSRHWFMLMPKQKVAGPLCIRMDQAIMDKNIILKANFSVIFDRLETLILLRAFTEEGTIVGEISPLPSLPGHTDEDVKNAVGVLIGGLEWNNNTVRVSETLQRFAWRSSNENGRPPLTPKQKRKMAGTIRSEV
Chain of Induced myeloid leukemia cell differentiation protein Mcl-1 (Q07820 whole entry): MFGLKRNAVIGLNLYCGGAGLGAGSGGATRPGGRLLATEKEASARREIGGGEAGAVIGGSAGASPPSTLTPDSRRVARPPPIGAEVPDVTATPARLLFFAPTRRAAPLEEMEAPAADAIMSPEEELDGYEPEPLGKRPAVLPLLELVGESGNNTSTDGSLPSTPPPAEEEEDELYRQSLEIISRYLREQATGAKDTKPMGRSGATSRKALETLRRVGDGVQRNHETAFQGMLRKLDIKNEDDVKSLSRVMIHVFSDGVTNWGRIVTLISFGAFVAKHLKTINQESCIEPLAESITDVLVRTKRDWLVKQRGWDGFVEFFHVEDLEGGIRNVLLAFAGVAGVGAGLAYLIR
Chain of NAD-dependent protein deacylase sirtuin-5, mitochondrial (Q9NXA8 whole entry): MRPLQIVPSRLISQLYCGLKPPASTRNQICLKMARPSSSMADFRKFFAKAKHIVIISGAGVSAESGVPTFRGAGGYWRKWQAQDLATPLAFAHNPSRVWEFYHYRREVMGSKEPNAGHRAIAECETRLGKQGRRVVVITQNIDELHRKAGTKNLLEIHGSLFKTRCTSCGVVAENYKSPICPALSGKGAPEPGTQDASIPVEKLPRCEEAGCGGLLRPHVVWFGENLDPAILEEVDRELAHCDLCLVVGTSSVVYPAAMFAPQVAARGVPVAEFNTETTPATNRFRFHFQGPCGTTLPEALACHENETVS
Chain of Cytochrome P450 2C19 (P33261 whole entry, the tested form may be a part): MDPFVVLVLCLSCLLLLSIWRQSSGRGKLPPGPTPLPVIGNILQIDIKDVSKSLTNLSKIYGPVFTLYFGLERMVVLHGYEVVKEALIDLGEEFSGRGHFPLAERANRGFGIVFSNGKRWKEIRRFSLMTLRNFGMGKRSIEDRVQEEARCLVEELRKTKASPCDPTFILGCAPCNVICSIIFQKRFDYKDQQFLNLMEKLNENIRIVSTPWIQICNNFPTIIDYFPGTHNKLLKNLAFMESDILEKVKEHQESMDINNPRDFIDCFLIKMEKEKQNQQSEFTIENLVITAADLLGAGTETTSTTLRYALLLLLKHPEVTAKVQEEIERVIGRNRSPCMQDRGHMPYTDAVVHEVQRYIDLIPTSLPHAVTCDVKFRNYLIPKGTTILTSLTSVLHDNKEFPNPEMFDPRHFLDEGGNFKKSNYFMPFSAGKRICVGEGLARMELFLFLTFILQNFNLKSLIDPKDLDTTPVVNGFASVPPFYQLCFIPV

Cc1cccc(S(=O)(=O)N(C)C[C@H]2OCc3cnnn3CCCC(=O)N([C@H](C)CO)C[C@@H]2C)c1
AC50 [1]: 23.9 µM (active)

COc1ccc(Cl)cc1N(CC(=O)N1CCCCC1)S(C)(=O)=O
EC50 (Ion channel NompC): > 29.9 µM (not active)
EC50 (Mucolipin-3): 2.38 µM (active)

COc1cccc(NC(=O)c2ccccc2-c2nc(-c3ccc(Cl)cc3)no2)c1
IC50 [2]: 9 µM (active)

O=C(Oc1cccc(F)c1)c1sc2ccccc2c1Cl
IC50 (NADPH oxidase 1): > 17 µM (not active)

CCN1CCN(Cc2nc3ccc([N+](=O)[O-])cc3c(=O)n2-c2ccccc2)CC1
IC50 [3]: 0.01 µM (active)
IC50 [4]: 0.27 µM (active)
IC50 [5]: 0.32 µM (active)

COc1cccc(/C=N/NC(=S)Nc2cccc(C(=O)O)c2)c1O
IC50 (Bcl-2-like protein 1): > 109 µM (not active)
IC50 (Nonstructural protein 1): 4.94 µM (active)
IC50 [6]: > 109 µM (not active)

O=C(NCCCN1CCCCCC1)C1CC(=O)N(CCc2ccccc2)C1 (stereo unspecified)
AC50 (Cytochrome P450 2D6): 25.1 µM (inconclusive)
IC50 [7]: 10.2 µM (active)
AC50 (Cytochrome P450 2C19): inconclusive

Cc1ccc(-c2nnc(-c3ccc(NC(=O)c4ccco4)cc3)o2)cc1
EC50 (Estrogen receptor): 10.4 µM (active)
EC50 [8]: 46.1 µM (active)
EC50 [9]: 28.4 µM (active)

c1ccc(Cn2cc(CSc3nnc(C4CCCC4)o3)nn2)cc1
IC90 [10]: 4 µM (active)
IC90 [11]: 250 µM (active)
IC90 [12]: 4 µM (active)
AC50 [13]: > 52 µM (inactive)

COc1ccccc1C1CC(c2c(O)nc3ccc(Cl)cc3c2-c2ccccc2)=NN1S(C)(=O)=O (stereo unspecified)
CC50 [14]: 25.2 µM (active)
AC50 (Cytochrome P450 2D6): 7.08 µM (inconclusive)
CC50 (Vero): 16 µM (active)
IC50 [15]: > 100 µM (active)
AC50 (Cytochrome P450 3A4): 39.8 µM (inconclusive)
